The values below come from paper PMC4440444 (Theranostics, 2015).

The subject of the test is glioma. Format: in vivo, human. To be noted: for T/NTmax (maximum target to non-target ratio): brain PET/CT; for SUVmax in glioma: brain PET/CT before surgery.

Where two headings read alike, the source gives them in different places.

As for ^18F-FDG, for the setting “eight glioma patients”, the “T/NTmax in glioma, mean ± SD” value is 0.86 ± 0.41. The “SUVmax in glioma tissues, range” value (eight glioma patients, range) is listed as 3.50-12.27. Further, the “T/NTmax in glioma, range” value (eight glioma patients, range) was 0.35-1.59. In addition, the “T/NTmax (maximum target to non-target ratio)” value runs as follows: (patient No. 1, WHO grade II) 0.72; (patient No. 2, WHO grade II) 0.35; (patient No. 3, WHO grade III) 0.61; (patient No. 4, WHO grade IV) 0.80; (patient No. 5, WHO grade IV) 0.72; (patient No. 6, WHO grade IV) 0.78. Besides, for the setting “patient No. 8, WHO grade IV”, the “T/NTmax (maximum target to non-target ratio)” value came out at 1.59. The SUVmax in glioma runs as follows: (patient No. 1, WHO grade II) 7.40; (patient No. 2, WHO grade II) 3.50; (patient No. 3, WHO grade III) 7.27; (patient No. 4, WHO grade IV) 12.27; (patient No. 5, WHO grade IV) 5.76; (patient No. 6, WHO grade IV) 9.87. Moreover, the SUVmax in glioma (patient No. 7, WHO grade IV) was 8.47 and the SUVmax in glioma (patient No. 8, WHO grade IV) was 4.20.
